# Measurements from PMC4312176 (Chemical communications (Cambridge, England), 2015).
# Key:
# [1] = target: T1, Plasmodium falciparum 1-deoxy-D-xylulose 5-phosphate reductoisomerase (PfDxr) (Plasmodium falciparum, UniProt Q8IKG4); assay: inhibition of purified recombinant PfDxr, NADPH consumption assay; assay type: biochemical
# T1 sequence (Q8IKG4 73-488): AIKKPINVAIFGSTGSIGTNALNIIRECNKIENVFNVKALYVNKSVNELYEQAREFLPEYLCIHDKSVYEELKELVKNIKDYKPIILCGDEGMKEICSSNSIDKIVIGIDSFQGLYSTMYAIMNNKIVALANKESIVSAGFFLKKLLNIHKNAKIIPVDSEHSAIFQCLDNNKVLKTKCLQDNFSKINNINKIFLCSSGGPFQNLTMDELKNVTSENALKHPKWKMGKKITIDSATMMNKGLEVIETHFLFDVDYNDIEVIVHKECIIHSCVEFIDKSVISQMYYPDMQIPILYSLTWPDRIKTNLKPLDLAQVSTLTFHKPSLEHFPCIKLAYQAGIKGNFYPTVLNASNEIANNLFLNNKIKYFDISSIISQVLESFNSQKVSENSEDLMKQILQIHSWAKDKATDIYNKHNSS
# [2] = target: T1, Plasmodium falciparum 1-deoxy-D-xylulose 5-phosphate reductoisomerase (PfDxr); assay: co-crystal structure; assay type: biochemical
Structure (SMILES),Ki [1] [nM],Ki [2] [nM]
CCC(=O)N(O)CCCP(=O)(O)O [FR-900098P],0.92 ± 0.19,–
CC(=O)N(O)CCCP(=O)(O)O [FR-900098],–,3.7 ± 0.9
